The experiment concerns peritoneal/ovarian tumor (shp53, AKT, c-Myc). Briefly: Spontaneous genetically-engineered mouse model (GEMM) of ovarian cancer. It counts as in vivo. As to conditions: C57BL/6, 20mg/kg IP every 3 days for 6 weeks. How it is done:
To induce IP tumor formation in immunocompetent mice, oncogenes (shp53, AKT, c-Myc), luciferase and the Sleeping Beauty (SB) transposase (10 μg/plasmid) were diluted in 500 μL of PBS and injected IP into female C57BL/6 mice. The mice were anesthetized by intramuscular injection of ketamine. The plasmid-injected mice were electroporated (EP) by the BTX ECM 830 square wave EP generator (BTX) (5 pulses, 200 V for 100 ms/pulse, 100 ms intervals between each pulse), the caliper electrode (BTX) was held on the waist of mouse. The mice were followed by IVIS imaging weekly for tracking tumor growth. The mice were sacrificed when the bioluminescence signal reached 10^9 photons/sec/cm^2/sr, or had enlarged abdomens due to the production of ascites, or had health conditions and/or criteria under which early euthanasia was required by the protocol (see above). To track peritoneal tumor growth, bioluminescence imaging was performed by the IVIS spectrum2000 (PerkinElmer) as the plasmid expressing SB transposase also produces luciferase. Briefly, the mice were injected IP with D-luciferin (GoldBio). After 10 min, the mice were anesthetized with isoflurane, and imaged by the IVIS Spectrum under the auto exposure mode. Bioluminescence in the peritoneal region was quantified as total photon counts/sec/cm^2/sr using Living Image 3.0 Software (Perkin Elmer).
A-C) Female nude mice were inoculated IP with ES2-luc cells, a human ovarian cancer line expressing luciferase. […] The IP tumor tissue and electroporated normal muscle tissue, being spatially distinct, were identified with separate regions of interest (ROI) after simultaneous imaging with IVIS.
GEMM better mimic the spontaneous development of cancers in an immune competent host than transplantable tumor lines. Twenty female C57BL/6 mice were co-injected IP with sleeping beauty vector and plasmids expressing carrying shp53, AKT, c-Myc and firefly luciferase genes, followed by electroporation (EP) to deliver these plasmid DNA into the peritoneal cavity cells wherein they integrate randomly into their genome. […]

Results on one molecule are retold here after publication PMC10266688 (PLOS ONE, 2023).

With `N#Cc1ccc(/C=C2/C(=O)/C(=C/c3ccc(C#N)cc3)C23CCNCC3)cc1` [Up284], the ascites entry is given as “did not develop appreciable ascites”. In addition, the “GEMM tumor burden vs vehicle” value (p = 0.002) is given as “significantly reduced tumor burden”. Further, for the setting “p = 0.06”, the survival vs vehicle result is “trend for prolonged survival”.
